Results as given in patent publication US5519043A, “Fluorenyl derivatives” (Scios Nova Inc., priority 1993, dated 1996).

Assays:
[1] = tested on: ear edema caused by oxazolone; experiment: Inhibition of Ear Edema Caused by Oxazolone; type: in vivo, CF-1 mice; details: mouse, 24 hours
Description: CF-1 mice, 25-30 g body weight, six animals per group were used. The mice were sensitized to the irritant two weeks prior to the test by dribbling 100 μL of a 3% solution of oxazolone in acetone onto the scrotum of the animal. Test compounds were administered orally at doses of 100 mg/kg and 300 mg/kg for 1 hour prior to oxazolone, intraperitoneally as follows: The test compound was dissolved in dimethyl sulfoxide and doses of 10 mg/kg, 30 mg/kg, and 100 mg/kg were injected 15 mintures prior to irritant. The irritant, 3% oxazolone in acetone, was added to the surface of the ear, 5 μL added to the upper surface and 5 μL added to the lower surface. After twenty four hours the thickness of the ear was measured to 0.01 mm by a micrometer with loose drag, positioned at the lateral-most edge of the mid-point of the pinna. Data were calculated as the inhibition of increased ear thickness compared to control animals' receiving only the irritant. In general, % inhibition of greater than 20% is statistically significant (p<0.05 or less, Student's t-test for unpaired data).

[2] = tested on: reverse passive Arthus reaction (blueing by antigen and antibody); experiment: Reverse Passive Arthus Reaction (RPA); type: in vivo, Male SD rats; details: rat
Description: Male SD rats weighing between 200 and 300 g were used. Test compounds were dissolved in dimethyl sulfoxide and 1 ml/kg of this stock solution (100 mg/ml), on serial dilutions were injected intraperitoneally one hour before administration of the antigen or given orally. The animals were anesthetized inhalationally with isoflurane and then injected through the penile vein with 1 ml of a solution of 2.5 mg of Evan's blue dye and 5.0 mg of human serum albumin in 1 ml of saline. This treatment was followed immediately by intracutaneous injections of 0.075 ml of anti-human albumin diluated to contain 4.38 mg/ml of antibody at 2 sites opposite the midline back. Anesthesia was terminated and after three hours, the animals were sacrificed. The skin was removed and the blue stained areas cut out. The skin patches were soaked overnight in stoppered tubes containing 2 ml of 1N potassium hydroxide at 5° C. Then 9 ml of a mixture of five parts of a 1.2N phosphoric acid and thirteen parts of acetone were added to the tubes. The tube contents were agitated and centrifuged, and the absorbance measured at 620 nm. The data were calculated as inhibition of blueing by test compound compared to control animals receiving only antigen and antibody.

[3] = tested on: plasma fibrinogen in arthritis model; experiment: Adjuvant arthritis test: inhibition of adjuvant-elevated plasma fibrinogen in rats; type: in vivo, Male Sprague Dawley rats; details: rat

## O=C(Nc1ccc(C(=O)O)cc1)OCCC1c2ccccc2-c2ccccc21 [Example 7, N-[9H-(Fluorenyl-9-ethoxycarbonyl)]amino-4-benzoic acid]
[1]; i.p., 10 mg/kg
  Inhibition of increased ear thickness: 46%
[1]; i.p., 30 mg/kg
  Inhibition of increased ear thickness: 82%
[1]; i.p., 100 mg/kg
  Inhibition of increased ear thickness: 79%
[1]; orally, dose of this value not stated (100 and 300 mg/kg in method)
  Inhibition of increased ear thickness: 50%
[2]
  RPA (p.o.) 100 mg/kg inhibition: 25%
[3]; 100 mg/kg p.o., n=5, without adjuvant, basal 2.44±0.08 mg/ml
  Plasma fibrinogen level, drug by itself: 4.8 ± 0.6 mg/mL
[3]; given orally, maximum achieved at 3 mg/kg
  Maximum inhibition of plasma fibrinogen: 50%
[3]; 100 mg/kg
  AA (i.p.) % inhibition at 100 mg/kg (inhibited plasma fibrinogen in arthritis model): 63%
  AA (p.o.) % inhibition at 100 mg/kg (inhibited plasma fibrinogen in arthritis model): 39%

## Cc1ccc2c(c1)C(CCOC(=O)Nc1ccc(C(=O)O)cc1)c1cc(C)ccc1-2 [Example 8, N-[9H-(2,7-Dimethylfluorenyl-9-ethoxycarbonyl)]amino-4-benzoic acid]
[2]
  RPA (p.o.) 100 mg/kg inhibition: 0%
[3]; 100 mg/kg
  AA (i.p.) % inhibition at 100 mg/kg (inhibited plasma fibrinogen in arthritis model): 69%
  AA (p.o.) % inhibition at 100 mg/kg (inhibited plasma fibrinogen in arthritis model): 48%

## O=C(Nc1ccc(C(=O)O)cc1)OCCC1c2cc(Cl)ccc2-c2ccc(Cl)cc21 [Example 9]
[2]
  RPA (p.o.) 100 mg/kg inhibition: 54%
[3]; 100 mg/kg
  AA (i.p.) % inhibition at 100 mg/kg (inhibited plasma fibrinogen in arthritis model): 78%
  AA (p.o.) % inhibition at 100 mg/kg (inhibited plasma fibrinogen in arthritis model): 38%

## O=C(CCC1c2ccccc2-c2ccccc21)Nc1ccccc1C(=O)O [Example 14, N-[3-(9-Fluorenyl)propionyl]anthranilic acid]
[3]; 10 mg/kg
  Inhibition of plasma fibrinogen levels: 22%
[3]; 30 mg/kg
  Inhibition of plasma fibrinogen levels: 19%
[3]; 100 mg/kg
  Inhibition of plasma fibrinogen levels: 51%

## O=C(Nc1ccc(C(=O)O)cc1)OCCCC1c2ccccc2-c2ccccc21 [Example 23, 4-[3-(9H-Fluoren-9-yl)propoxycarbonyl]-aminobenzoic acid]
[2]
  RPA (p.o.) 100 mg/kg inhibition: 1%

## O=C(CCCC1c2ccccc2-c2ccccc21)Nc1ccc(C(=O)O)cc1 [Example 25, 4-[9H-(Fluoren-9-yl)]butyric acid-4-carboxyanilide]
[2]
  RPA (p.o.) 100 mg/kg inhibition: 0%
[3]; 100 mg/kg
  AA (p.o.) % inhibition at 100 mg/kg (inhibited plasma fibrinogen in arthritis model): 15%

## O=C(Nc1ccc(C(=O)O)cc1)SCCC1c2ccccc2-c2ccccc21 [Example 26, N-[2-(9H-Fluoren-9-yl)ethylthioxycarbonyl]-4-aminobenzoic acid]
[3]; 100 mg/kg
  AA (i.p.) % inhibition at 100 mg/kg (inhibited plasma fibrinogen in arthritis model): 70%
  AA (p.o.) % inhibition at 100 mg/kg (inhibited plasma fibrinogen in arthritis model): 56%

## O=C(Nc1ccc(C(=O)O)cc1)SCCC1c2cc(Cl)ccc2-c2ccc(Cl)cc21 [Example 27]
[3]; 100 mg/kg
  AA (i.p.) % inhibition at 100 mg/kg (inhibited plasma fibrinogen in arthritis model): 54%
  AA (p.o.) % inhibition at 100 mg/kg (inhibited plasma fibrinogen in arthritis model): 52%

## O=C(Nc1ccc(C(=O)O)cc1)SCCC1c2cc(Br)ccc2-c2ccc(Br)cc21 [Example 28]
[2]
  RPA (p.o.) 100 mg/kg inhibition: 1%
[3]; 100 mg/kg
  AA (i.p.) % inhibition at 100 mg/kg (inhibited plasma fibrinogen in arthritis model): 72%
  AA (p.o.) % inhibition at 100 mg/kg (inhibited plasma fibrinogen in arthritis model): 41%
